Measurements reported in patent publication US20230263822A1, “MODULATION OF FACTOR 11 EXPRESSION” (Ionis Pharmaceuticals, Inc., priority 2008, published 2023).
Strand notation (5' to 3'): a small letter for the sugar, then the base; units joined by * are phosphorothioate-linked, units joined directly phosphodiester-linked; [ ] holds rarer units or linkages, { } end groups; capitals alone tell only the bases. e = 2'-O-(2-methoxyethyl) (MOE); [5mC] = 5-methylcytosine; d = 2'-deoxy (DNA)

system: human Factor 11 mRNA; assay: Antisense inhibition of human Factor 11 in HepG2 cells, lipofectin, 75 nM (Example 1); type: cell-based; settings: 75 nM antisense oligonucleotide, ~24 h, relative to untreated control cells, gapmers targeted to SEQ ID NO: 1
Protocol: Antisense oligonucleotides targeted to a Factor 11 nucleic acid were tested for their effects on Factor 11 mRNA in vitro. Cultured HepG2 cells at a density of 10,000 cells per well were transfected using lipofectin reagent with 75 nM antisense oligonucleotide. After a treatment period of approximately 24 hours, RNA was isolated from the cells and Factor 11 mRNA levels were measured by quantitative real time PCR. Factor 11 mRNA levels were adjusted according to total RNA content, as measured by RIBOGREEN. Results are presented as percent inhibition of Factor 11, relative to untreated control cells.
The chimeric antisense oligonucleotides in Tables 1 and 2 were designed as 5-10-5 MOE gapmers. The gapmers are 20 nucleotides in length, wherein the central gap segment is comprised of 10 2′-deoxynucleotides and is flanked on both sides (in the 5′ and 3′ directions) by wings comprising 5 nucleotides each. Each nucleotide in the 5′ wing segment and each nucleotide in the 3′ wing segment has a 2′-MOE modification. The internucleoside linkages throughout each gapmer are phosphorothioate (P=S) linkages. All cytidine residues throughout each gapmer are 5-methylcytidines. “Target start site” indicates the 5′-most nucleotide to which the gapmer is targeted. “Target stop site” indicates the 3′-most nucleotide to which the gapmer is targeted. Each gapmer listed in Table 1 is targeted to SEQ TD NO: 1 (GENBANK Accession No. NM_000128.3) and each gapmer listed in Table 2 is targeted to SEQ TD NO: 2 (GENBANK Accession No. NT_022792.17, truncated from 19598000 to 19624000).

Row | Substance | % inhibition [%]
1 | 412195 (antisense eA*eA*eA*eT*e[5mC]*dA*dT*d[5mC]*d[5mC]*dT*dG*dA*dA*dA*dA*eG*eA*e[5mC]*e[5mC]*eT) [compound 412195] | 22
2 | 412214 (antisense eT*e[5mC]*e[5mC]*eT*eG*dG*dG*dA*dA*dA*dA*dG*dA*dA*dG*eG*eT*eA*eA*eA) [compound 412214] | 58
3 | 412205 (antisense eG*eT*eT*eT*eA*dT*dG*d[5mC]*d[5mC]*d[5mC]*dT*dT*d[5mC]*dA*dT*eG*eT*e[5mC]*eT*eA) [compound 412205] | 69
4 | 412229 (antisense eG*eT*eA*e[5mC]*eA*d[5mC]*dT*d[5mC]*dA*dT*dT*dA*dT*d[5mC]*d[5mC]*eA*eT*eT*eT*eT) [compound 412229] | 64
5 | 412246 (antisense eA*eG*eA*eT*e[5mC]*dA*dT*d[5mC]*dT*dT*dA*dT*dG*dG*dG*eT*eT*eA*eT*eT) [compound 412246] | 68
6 | 412199 (antisense eT*eT*e[5mC]*eA*e[5mC]*dT*d[5mC]*dT*dT*dG*dG*d[5mC]*dA*dG*dT*eG*eT*eT*eT*e[5mC]) [compound 412199] | 66
7 | 412191 (antisense eT*eT*eA*eA*eA*dA*dT*d[5mC]*dT*dT*dA*dG*dT*dA*dT*eG*eT*e[5mC]*eA*eG) [compound 412191] | 14
8 | 413462 (antisense eA*eT*e[5mC]*eT*eT*dA*dG*dT*dA*dT*dG*dT*d[5mC]*dA*dG*eA*eA*eA*eT*eA) [compound 413462] | 12
9 | 412247 (antisense eT*eA*eG*e[5mC]*e[5mC]*dG*dG*d[5mC]*dA*d[5mC]*dA*dG*dA*dT*d[5mC]*eA*eT*e[5mC]*eT*eT) [compound 412247] | 75
10 | 412252 (antisense eT*eT*eA*eT*eG*dG*dT*dA*dA*dT*dT*d[5mC]*dT*dT*dG*eG*eA*e[5mC]*eT*e[5mC]) [compound 412252] | 39
11 | 412210 (antisense eT*eG*e[5mC]*eA*e[5mC]*dA*dG*dG*dA*dT*dT*dT*d[5mC]*dA*dG*eT*eG*eA*eA*eA) [compound 412210] | 73
12 | 413499 (antisense eA*eT*e[5mC]*eA*eT*dT*dT*dT*dT*d[5mC]*dA*dG*dG*dA*dA*eA*eG*eT*eG*eT) [compound 413499] | 52
13 | 412207 (antisense e[5mC]*eG*eT*eG*eA*dA*dA*dA*dA*dG*dT*dG*dG*d[5mC]*dA*eG*eT*eG*eG*eA) [compound 412207] | 64
14 | 412257 (antisense e[5mC]*eT*eG*e[5mC]*eA*dA*dA*dA*dT*dG*dG*dT*dG*dA*dA*eG*eA*e[5mC]*eT*eG) [compound 412257] | 57
15 | 412249 (antisense e[5mC]*eA*eT*eT*e[5mC]*dA*d[5mC]*dA*d[5mC]*dT*dG*d[5mC]*dT*dT*dG*eA*eG*eT*eT*eT) [compound 412249] | 55
16 | 412256 (antisense eA*eA*e[5mC]*eA*eA*dA*dT*d[5mC]*dT*dA*dT*dT*dT*dA*dT*eG*eG*eT*eG*eG) [compound 412256] | 39
17 | 413493 (antisense eT*eT*eT*e[5mC]*eT*dT*dG*dA*dA*d[5mC]*d[5mC]*d[5mC]*d[5mC]*dA*dA*eA*eG*eA*eA*eA) [compound 413493] | 65

Row | Substance | % inhibition [%]
18 | 412192 (antisense e[5mC]*eA*eG*e[5mC]*eA*dT*dA*dT*dT*dT*dG*dT*dG*dA*dA*eA*eG*eT*e[5mC]*eG) [compound 412192] | 44
19 | 413461 (antisense eG*eT*e[5mC]*eA*eG*dA*dA*dA*dT*dA*dT*dA*d[5mC]*d[5mC]*dT*eT*eG*eA*eG*eA) [compound 413461] | 39
20 | 413484 (antisense e[5mC]*e[5mC]*eT*eT*eA*dA*dT*dG*dT*dG*dT*dA*dT*d[5mC]*d[5mC]*eA*eG*eA*eG*eA) [compound 413484] | 74
21 | 412261 (antisense eT*e[5mC]*e[5mC]*e[5mC]*eA*dA*dG*dA*dT*dA*dT*dT*dT*dT*dA*eA*eA*eT*eA*eA) [compound 412261] | 3
22 | 412197 (antisense eA*e[5mC]*eA*e[5mC]*eA*dT*dT*d[5mC]*dA*d[5mC]*d[5mC]*dA*dG*dA*dA*eA*e[5mC]*eT*eG*eA) [compound 412197] | 45
23 | 412234 (antisense eG*eT*eT*eT*e[5mC]*d[5mC]*dA*dA*dT*dG*dA*dT*dG*dG*dA*eG*e[5mC]*e[5mC]*eT*e[5mC]) [compound 412234] | 60
24 | 413489 (antisense e[5mC]*eA*e[5mC]*eT*eG*dG*dT*dT*dT*d[5mC]*d[5mC]*dA*dA*dT*dG*eA*eT*eG*eG*eA) [compound 413489] | 68
25 | 412244 (antisense eG*eA*eA*eG*eG*d[5mC]*dA*dG*dG*d[5mC]*dA*dT*dA*dT*dG*eG*eG*eT*e[5mC]*eG) [compound 412244] | 53
26 | 412228 (antisense eA*eT*eG*eT*eG*dT*dA*dT*d[5mC]*d[5mC]*dA*dG*dA*dG*dA*eT*eG*e[5mC]*e[5mC]*eT) [compound 412228] | 71
27 | 412208 (antisense eA*eG*eA*e[5mC]*eA*dA*dA*dT*dG*dT*dT*dA*d[5mC]*dG*dA*eT*eG*e[5mC]*eT*e[5mC]) [compound 412208] | 73
28 | 413477 (antisense eA*e[5mC]*eT*eG*eA*dA*dA*d[5mC]*d[5mC]*dA*dG*dA*dA*dA*dG*eA*eG*e[5mC]*eT*eT) [compound 413477] | 54
29 | 412217 (antisense eA*eA*eT*e[5mC]*e[5mC]*dA*d[5mC]*dT*d[5mC]*dT*d[5mC]*dA*dG*dA*dT*eG*eT*eT*eT*eT) [compound 412217] | 47
30 | 413491 (antisense eT*eT*eA*eG*eG*dT*dG*dA*d[5mC]*dT*d[5mC]*dT*dA*d[5mC]*d[5mC]*e[5mC]*e[5mC]*eA*eT*eA) [compound 413491] | 73
31 | 412263 (antisense eT*eG*eA*eA*eA*dG*d[5mC]*dT*dA*dT*dG*dT*dG*dG*dT*eG*eA*e[5mC]*eA*eA) [compound 412263] | 33
32 | 413465 (antisense e[5mC]*eT*eT*eA*eT*dT*dT*dG*dG*dT*dG*dT*dG*dA*dG*e[5mC]*eA*eT*eT*eG) [compound 413465] | 80
33 | 412248 (antisense e[5mC]*e[5mC]*eA*eG*eA*dT*dG*d[5mC]*d[5mC]*dA*dG*dA*d[5mC]*d[5mC]*dT*e[5mC]*eA*eT*eT*eG) [compound 412248] | 53
34 | 412258 (antisense eG*eT*eG*eT*eA*dG*dA*dT*dT*d[5mC]*d[5mC]*dT*dG*d[5mC]*dA*eA*eA*eA*eT*eG) [compound 412258] | 44

same assay, conditions: 75 nM antisense oligonucleotide, ~24 h, relative to untreated control cells, gapmers targeted to SEQ ID NO: 2

Row | Substance | % inhibition [%]
35 | 413527 (antisense e[5mC]*e[5mC]*eA*eT*eA*dA*dT*dG*dA*dA*dG*dA*dA*dG*dG*eA*eA*eG*eG*eG) [compound 413527] | 52
36 | 413507 (antisense eT*eT*eT*e[5mC]*eA*dA*dG*d[5mC]*dT*d[5mC]*dA*dG*dG*dA*dT*eG*eG*eG*eA*eA) [compound 413507] | 55
37 | 413528 (antisense eT*eT*eA*eA*eG*dT*dT*dA*d[5mC]*dA*dT*dT*dG*dT*dA*eG*eA*e[5mC]*e[5mC]*eA) [compound 413528] | 48
38 | 413512 (antisense eA*eT*eA*eT*eT*dT*d[5mC]*dA*dA*dA*dA*dT*d[5mC]*d[5mC]*dA*eG*eT*eA*eT*eG) [compound 413512] | 39
39 | 413530 (antisense eA*eT*e[5mC]*eT*eT*dG*dT*dA*dA*dT*dT*dA*d[5mC]*dA*d[5mC]*eA*e[5mC]*e[5mC]*e[5mC]*e[5mC]) [compound 413530] | 27
40 | 413517 (antisense eA*eA*eA*eG*e[5mC]*dT*dA*dT*dT*dG*dG*dA*dG*dA*d[5mC]*eT*e[5mC]*eA*eG*eA) [compound 413517] | 51
41 | 413501 (antisense eT*eT*eA*eG*eT*dT*dT*dA*d[5mC]*dT*dG*dA*d[5mC]*dA*d[5mC]*eT*eA*eA*eG*eA) [compound 413501] | 23
42 | 413511 (antisense eT*eG*e[5mC]*e[5mC]*eA*dA*dT*dT*dT*dA*dA*dA*dA*dG*dT*eG*eT*eA*eG*e[5mC]) [compound 413511] | 43
43 | 413525 (antisense eG*eT*eA*eT*eA*dA*dA*dT*dG*dT*dG*dT*d[5mC]*dA*dA*eA*eT*eT*eA*eA) [compound 413525] | 43
44 | 413502 (antisense e[5mC]*eT*eG*e[5mC]*eT*dT*dT*dA*dT*dG*dA*dA*dA*dA*dA*e[5mC]*e[5mC]*eA*eA*e[5mC]) [compound 413502] | 22
45 | 413534 (antisense eT*eT*eT*eT*e[5mC]*d[5mC]*dA*dG*dA*dA*dG*dA*dG*dA*d[5mC]*eT*e[5mC]*eT*eT*e[5mC]) [compound 413534] | 31
46 | 413505 (antisense eT*eG*eG*eG*eA*dA*dA*dG*d[5mC]*dT*dT*dT*d[5mC]*dA*dA*eT*eA*eT*eT*e[5mC]) [compound 413505] | 57
